Measured values reported in patent publication US6613718B2, “Aryl ether derivatives and processes for their preparation and herbicidal and desiccant compositions containing them” (Ishihara Sangyo Kaisha, Ltd., priority 2001, dated 2003).

Key:
Assay type in all cases: in vivo
[1] = tested on: field corn (Zea mays L., var. Dekalb 535, CORN); test: Post-emerge greenhouse screening, crop safety / corn selectivity (phytotoxicity rating); settings: 14 days after application
Method in brief: (§1)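 Rates of 15 to 1000 g ai/ha were applied by mechanized flat-fan spray. Phytotoxicity was then judged visually at 14 days using a 0-100 scale.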

[2] = tested on: large crabgrass (Digitaria sanguinalis, DIGSA); test: Pre-emerge greenhouse herbicide activity screening, phytotoxicity rating; settings: 14 days after application
Method in brief: as §1

[3] = tested on: common ragweed (Ambrosia artemisiifolia L., AMBEL); test: as above; settings: 14 days after application
Method in brief: as §1

[4] = tested on: redroot pigweed (Amaranthus retroflexus, AMARE); test: as above; settings: 14 days after application
Method in brief: as §1

[5] = tested on: sicklepod (Cassia obtusifolia, CASOB); test: as above; settings: 14 days after application
Method in brief: as §1

[6] = tested on: barnyardgrass (Echinochloa crus-galli, ECHCG); test: as above; settings: 14 days after application
Method in brief: as §1

[7] = tested on: johnsongrass (Sorghum halepense, SORHA); test: as above; settings: 14 days after application
Method in brief: as §1

[8] = tested on: green foxtail (Setaria viridis, SETVI); test: as above; settings: 14 days after application
Method in brief: as §1

[9] = tested on: lambsquarters (Chenopodium album, CHEAL); test: as above; settings: 14 days after application
Method in brief: as §1

[10] = tested on: velvetleaf (Abutilon theophrasti, ABUTH); test: as above; settings: 14 days after application
Method in brief: as §1

[11] = tested on: ivyleaf morningglory (Ipomoea hederacea, IPOHE); test: as above; settings: 14 days after application
Method in brief: as §1

[12] = tested on: upland rice (Oryza sp., var.Tebonnet, RICE); test: Post-emerge greenhouse screening, crop safety (phytotoxicity rating); settings: 14 days after application
Method in brief: as §1

[13] = tested on: soybean (Glycine max L., var. Pella 86, SOY); test: as above; settings: 14 days after application
Method in brief: as §1

[14] = tested on: large crabgrass (Digitaria sanguinalis, DIGSA); test: Post-emerge greenhouse herbicide activity screening, phytotoxicity rating; settings: 14 days after application
Method in brief: as §1

[15] = tested on: common ragweed (Ambrosia artemisiifolia L., AMBEL); test: as above
Method in brief: as §1

[16] = tested on: redroot pigweed (Amaranthus retroflexus, AMARE); test: as above
Method in brief: as §1

[17] = tested on: sicklepod (Cassia obtusifolia, CASOB); test: as above
Method in brief: as §1

[18] = tested on: barnyardgrass (Echinochloa crus-galli, ECHCG); test: as above; settings: 14 days after application
Method in brief: as §1

[19] = tested on: johnsongrass (Sorghum halepense, SORHA); test: as above; settings: 14 days after application
Method in brief: as §1

[20] = tested on: green foxtail (Setaria viridis, SETVI); test: as above
Method in brief: as §1

[21] = tested on: lambsquarters (Chenopodium album, CHEAL); test: as above
Method in brief: as §1

[22] = tested on: velvetleaf (Abutilon theophrasti, ABUTH); test: as above; settings: 14 days after application
Method in brief: as §1

[23] = tested on: ivyleaf morningglory (Ipomoea hederacea, IPOHE); test: as above; settings: 14 days after application
Method in brief: as §1

[24] = tested on: upland rice (Oryza sp., var.Tebonnet, RICE); test: Pre-emerge greenhouse screening, crop safety (phytotoxicity rating); settings: 14 days after application
Method in brief: as §1

[25] = tested on: soybean (Glycine max L., var. Pella 86, SOY); test: as above; settings: 14 days after application
Method in brief: as §1

[26] = tested on: field corn (Zea mays L., var. Dekalb 535, CORN); test: as above; settings: 14 days after application
Method in brief: as §1

[27] = 125 g ai/ha, 14 days after application
[28] = 250 g ai/ha, 14 days after application

Structure (SMILES): Cn1c(C(F)(F)F)cc(=O)n(-c2cc(Oc3ccccc3)c(C#N)cc2F)c1=S [Compound 1-69]
- CORN crop damage, phytotoxicity rating (0-100 scale) ([1]; 125 g ai/ha): 0
- CORN crop damage, phytotoxicity rating (0-100 scale) ([1]; 250 g ai/ha): 5
- DIGSA phytotoxicity rating (0-100 scale) ([2]; 125 g ai/ha): 99
- DIGSA phytotoxicity rating (0-100 scale) ([2]; 250 g ai/ha): 100
- AMBEL phytotoxicity rating (0-100 scale) ([3]; 125 g ai/ha): 100
- AMBEL phytotoxicity rating (0-100 scale) ([3]; 250 g ai/ha): 100
- AMARE phytotoxicity rating (0-100 scale) ([4]; 125 g ai/ha): 100
- AMARE phytotoxicity rating (0-100 scale) ([4]; 250 g ai/ha): 100
- CASOB phytotoxicity rating (0-100 scale) ([5]; 125 g ai/ha): 100
- CASOB phytotoxicity rating (0-100 scale) ([5]; 250 g ai/ha): 99
- ECHCG phytotoxicity rating (0-100 scale) ([6]; 125 g ai/ha): 90
- ECHCG phytotoxicity rating (0-100 scale) ([6]; 250 g ai/ha): 95
- SORHA phytotoxicity rating (0-100 scale) ([7]; 125 g ai/ha): 95
- SORHA phytotoxicity rating (0-100 scale) ([7]; 250 g ai/ha): 95
- SETVI phytotoxicity rating (0-100 scale) ([8]; 125 g ai/ha): 100
- SETVI phytotoxicity rating (0-100 scale) ([8]; 250 g ai/ha): 100
- CHEAL phytotoxicity rating (0-100 scale) ([9]; 125 g ai/ha): 100
- CHEAL phytotoxicity rating (0-100 scale) ([9]; 250 g ai/ha): 100
- ABUTH phytotoxicity rating (0-100 scale) ([10]; 125 g ai/ha): 100
- ABUTH phytotoxicity rating (0-100 scale) ([10]; 250 g ai/ha): 100
- IPOHE phytotoxicity rating (0-100 scale) ([11]; 125 g ai/ha): 100
- IPOHE phytotoxicity rating (0-100 scale) ([11]; 250 g ai/ha): 100
- RICE crop damage, phytotoxicity rating (0-100 scale) ([12]; 125 g ai/ha): 0
- RICE crop damage, phytotoxicity rating (0-100 scale) ([12]; 250 g ai/ha): 0
- SOY crop damage, phytotoxicity rating (0-100 scale) ([13]; 125 g ai/ha): 0
- SOY crop damage, phytotoxicity rating (0-100 scale) ([13]; 250 g ai/ha): 50
- DIGSA phytotoxicity rating (0-100 scale) ([14]; 125 g ai/ha): 0
- DIGSA phytotoxicity rating (0-100 scale) ([14]; 250 g ai/ha): 30
- AMBEL phytotoxicity rating (0-100 scale) ([15]; 31.3 g ai/ha): 70
- AMBEL phytotoxicity rating (0-100 scale) ([15]; 62.5 g ai/ha): 70
- AMBEL phytotoxicity rating (0-100 scale) [15, 27]: 30
- AMBEL phytotoxicity rating (0-100 scale) [15, 28]: 35
- AMARE phytotoxicity rating (0-100 scale) ([16]; 31.3 g ai/ha): 100
- AMARE phytotoxicity rating (0-100 scale) ([16]; 62.5 g ai/ha): 100
- AMARE phytotoxicity rating (0-100 scale) [16, 27]: 99
- AMARE phytotoxicity rating (0-100 scale) [16, 28]: 100
- CASOB phytotoxicity rating (0-100 scale) ([17]; 31.3 g ai/ha): 50
- CASOB phytotoxicity rating (0-100 scale) ([17]; 62.5 g ai/ha): 65
- CASOB phytotoxicity rating (0-100 scale) [17, 27]: 75
- CASOB phytotoxicity rating (0-100 scale) [17, 28]: 70
- ECHCG phytotoxicity rating (0-100 scale) ([18]; 125 g ai/ha): 0
- ECHCG phytotoxicity rating (0-100 scale) ([18]; 250 g ai/ha): 25
- SORHA phytotoxicity rating (0-100 scale) ([19]; 125 g ai/ha): 0
- SORHA phytotoxicity rating (0-100 scale) ([19]; 250 g ai/ha): 0
- SETVI phytotoxicity rating (0-100 scale) ([20]; 31.3 g ai/ha): 0
- SETVI phytotoxicity rating (0-100 scale) ([20]; 62.5 g ai/ha): 50
- SETVI phytotoxicity rating (0-100 scale) [20, 27]: 0
- SETVI phytotoxicity rating (0-100 scale) [20, 28]: 30
- CHEAL phytotoxicity rating (0-100 scale) ([21]; 31.3 g ai/ha): 80
- CHEAL phytotoxicity rating (0-100 scale) ([21]; 62.5 g ai/ha): 80
- CHEAL phytotoxicity rating (0-100 scale) [21, 27]: 100
- CHEAL phytotoxicity rating (0-100 scale) [21, 28]: 100
- ABUTH phytotoxicity rating (0-100 scale) ([22]; 125 g ai/ha): 100
- ABUTH phytotoxicity rating (0-100 scale) ([22]; 250 g ai/ha): 100
- IPOHE phytotoxicity rating (0-100 scale) ([23]; 125 g ai/ha): 100
- IPOHE phytotoxicity rating (0-100 scale) ([23]; 250 g ai/ha): 100
- RICE crop damage, phytotoxicity rating (0-100 scale) ([24]; 125 g ai/ha): 50
- RICE crop damage, phytotoxicity rating (0-100 scale) ([24]; 250 g ai/ha): 60
- SOY crop damage, phytotoxicity rating (0-100 scale) ([25]; 125 g ai/ha): 30
- SOY crop damage, phytotoxicity rating (0-100 scale) ([25]; 250 g ai/ha): 50
- CORN crop damage, phytotoxicity rating (0-100 scale) ([26]; 125 g ai/ha): 5
- CORN crop damage, phytotoxicity rating (0-100 scale) ([26]; 250 g ai/ha): 10
